Article PMC12446003, “Pharmacological characterization of linaprazan glurate (X842), a novel potassium-competitive acid blocker, in vitro and in vivo” (Frontiers in Pharmacology, 2025)
Read-outs that look alike come from different tables or passages of the source.

Tests used:
[1] = Pharmacokinetic assessment of X842 in dogs (IV, single oral, repeated oral); assay type: in vivo; settings: beagle, dog, plasma, analyte as labelled; for half-life at 1 day: read-out: t1/2 Day 1 (converted); for half-life at 7 day: read-out: t1/2 Day 7 (converted); for half-life: read-out: t1/2 (converted)
Method: (§1) Pharmacokinetic assessments were conducted by Shanghai Medicilon Inc. Using C18 solid-phase extraction (Shimadzu UFLC-20A, ACE 3, C18, 3.0 µm, 150 × 4.6 mm; Shimadzu, Japan) with the following conditions: mobile phase A: 1 M ammonium acetate in water, mobile phase B: 100% acetonitrile; gradient 0–5 min: 100% A, 5–30 min: 85% A, 35–63 min: 75% A, 63–65 min: 55% A, 65–70 min: 0% A, 72–87 min: 100% A; flow rate 0.7 mL/min; column temperature 30 °C ([Weidof and Covey, 1992]). […] Bioavailability was calculated as F (%) = (Doseiv × AUCpo(0–24h)) ÷ (Dosepo × AUCiv (0–24h)) × 100%, where “po” represents oral administration and “iv” represents intravenous administration.
Male and female Beagle dogs weighing around 9 kg were arbitrarily selected for testing. Food and water were provided ad libitum, except during overnight fasting (15–16 h) prior to oral drug administration ([Adebowale et al., 2002]). X842 were dissolved in the PEG400/ethanol/Solutol/water mixture (40:10:5:45% v/v) and methane sulfonic acid was used to adjust to pH 3, yielding solutions with concentrations of 0.3 mg/mL, 1.2 mg/mL, and 4.8 mg/mL for oral administration. There were four rounds of drug administration. One week was required between the rounds of testing according to the conditions for of animal welfare maintenance. For IV injection, a drug solution with a concentration of 0.3 mg/mL was prepared and filtered through a 0.22-μm filter. Blood samples were collected via the jugular vein using the same procedures as were used for the rat experiments. Following centrifugation, the plasma was transferred to clean tubes and stored at −80 °C until further analysis. All animals were euthanized by phenobarbital injection after the final blood sample collection. Pharmacokinetic assessments were conducted as described in 2.2.1.

[2] = Pharmacokinetic assessment of X842 in rats (IV, single oral, repeated oral); assay type: in vivo, Sprague-Dawley rats; settings: Sprague-Dawley, rat, plasma; for AUC(0-t): read-out: AUC(0–24h); for half-life: read-out: t1/2 (converted)
Method: Male and female Sprague-Dawley rats weighing approximately 150 g were housed individually with a 12-h light/dark cycle. Food and water were provided ad libitum, except during overnight fasting (10–16 h) prior to oral drug administration, as described previously ([Kotegawa et al., 1998]; [Kotegawa et al., 2002]). To investigate the absorption kinetics of X842 (prodrug) and linaprazan (metabolite, parent drug) in rats after oral and intravenous administration of X842, X842 were dissolved in 5% Solutol HS15/45% ethanol/10% PEG400/40% saline, and methane sulfonic acid was used to adjust to pH 3, yielding solutions with concentrations of 0.6 mg/mL, 2.4 mg/mL, and 9.6 mg/mL for oral administration. For intravenous (IV) injection, a drug solution (0.6 mg/mL) was prepared and filtered through a 0.22-μm filter. Blood samples were collected via the jugular vein of conscious rats (without intubation, narcotics, or antibiotics) prior to dosing and at 0.083, 0.25, 0.5, 1, 2, 4, 6, 8, and 24 h after dosing. Blood samples were placed into tubes containing sodium heparin and centrifuged at 3,500 rpm for 10 min at 4 °C. Following centrifugation, the plasma was transferred to clean tubes and stored at −80 °C until further analysis. All animals were euthanized by carbon dioxide (CO2) inhalation after the final blood sample collection.
as §1

[3] = 1.2 mg/kg, female dogs, repeat oral X842, Day 1
[4] = 1.2 mg/kg, female dogs, repeat oral X842, Day 7
[5] = female dogs, intravenous X842 0.3 mg/kg
[6] = female dogs, single oral X842 0.3 mg/kg
[7] = female dogs, single oral X842 1.2 mg/kg
[8] = female dogs, single oral X842 4.8 mg/kg
[9] = male dogs, intravenous X842 0.3 mg/kg
[10] = male dogs, single oral X842 0.3 mg/kg
[11] = male dogs, single oral X842 1.2 mg/kg
[12] = male dogs, single oral X842 4.8 mg/kg
[13] = female, iv, 0.6 mg/kg, female rats, intravenous X842, plasma analyte as labelled
[14] = female, po, 0.6 mg/kg, female rats, single oral X842 0.6 mg/kg, analyte as labelled
[15] = female, po, 2.4 mg/kg, female rats, single oral X842 2.4 mg/kg, analyte as labelled
[16] = female, po, 9.6 mg/kg, female rats, single oral X842 9.6 mg/kg, analyte as labelled
[17] = male, iv, 0.6 mg/kg, male rats, intravenous X842, plasma analyte as labelled
[18] = male, po, 0.6 mg/kg, male rats, single oral X842 0.6 mg/kg, analyte as labelled
[19] = male, po, 2.4 mg/kg, male rats, single oral X842 2.4 mg/kg, analyte as labelled
[20] = male, po, 9.6 mg/kg, male rats, single oral X842 9.6 mg/kg, analyte as labelled

**Q.** Which results are given for `Cc1cccc(C)c1CNc1cc(C(=O)NCCO)cn2c(C)c(C)nc12` [linaprazan]?
**A.** Cmax at 1 day [1, 3]: 67.2 ± 4.7 ng/mL; half-life at 1 day [1, 3]: 3.2 ± 0.42 h; Cmax at 7 day [1, 4]: 65 ± 4.7 ng/mL; half-life at 7 day [1, 4]: 5.1 ± 1.1 h; half-life at 1 day ([1]; 1.2 mg/kg, male dogs, 7 days of repeat oral X842, Day 1): 2.8 ± 0.2 h; half-life at 7 day ([1]; 1.2 mg/kg, male dogs, 7 days of repeat oral X842, Day 7): 3.8 ± 0.4 h; Cmax at 1 day ([1]; 1.2 mg/kg, male dogs, repeat oral X842, Day 1): 82.8 ± 56.5 ng/mL; Cmax at 7 day ([1]; 1.2 mg/kg, male dogs, repeat oral X842, Day 7): 67.5 ± 23.9 ng/mL; Cmax [1, 5]: 30.6 ± 6.2 ng/mL; half-life [1, 5]: 1.6 ± 0.2 h; Cmax [1, 6]: 10.4 ± 1.4 ng/mL; half-life [1, 6]: 2.1 ± 0.4 h; Cmax [1, 7]: 67.2 ± 4.7 ng/mL; half-life [1, 7]: 3.2 ± 0.42 h; Cmax [1, 8]: 535 ± 149 ng/mL; half-life [1, 8]: 2.2 ± 0.9 h; Cmax [1, 9]: 45.5 ± 21.4 ng/mL; half-life [1, 9]: 1.5 ± 0.25 h; Cmax [1, 10]: 15.8 ng/mL; half-life [1, 10]: 2.2 ± 0.7 h; Cmax [1, 11]: 82.8 ± 56.5 ng/mL; half-life [1, 11]: 2.8 ± 0.2 h; Cmax [1, 12]: 851 ± 116 ng/mL; half-life [1, 12]: 2.6 ± 0.2 h; AUC(0-t) ([1]; female, iv, 0.3 mg/kg, female dogs, intravenous X842 0.3 mg/kg, read-out: AUC(0-24h)): 106 ± 13.9 ng·h/mL; AUC(0-t) ([1]; female, po, 0.3 mg/kg, female dogs, single oral X842 0.3 mg/kg, read-out: AUC(0-24h)): 48.7 ± 7.4 ng·h/mL; AUC(0-t) ([1]; female, po, 1.2 mg/kg, female dogs, repeat oral X842, Day 1, read-out: AUC(0-24h) Day 1): 412 ± 166 ng·h/mL; AUC(0-t) ([1]; female, po, 1.2 mg/kg, female dogs, repeat oral X842, Day 7, read-out: AUC(0-24h) Day 7): 508 ± 41.8 ng·h/mL; AUC(0-t) ([1]; female, po, 1.2 mg/kg, female dogs, single oral X842 1.2 mg/kg, read-out: AUC(0-24h)): 412 ng·h/mL; AUC(0-t) ([1]; female, po, 4.8 mg/kg, female dogs, single oral X842 4.8 mg/kg, read-out: AUC(0-24h)): 2920 ng·h/mL; AUC(0-t) ([1]; male, iv, 0.3 mg/kg, male dogs, intravenous X842 0.3 mg/kg, read-out: AUC(0-24h)): 170 ± 26.2 ng·h/mL; AUC(0-t) ([1]; male, po, 0.3 mg/kg, male dogs, single oral X842 0.3 mg/kg, read-out: AUC(0-24h)): 77.8 ± 66.8 ng·h/mL; AUC(0-t) ([1]; male, po, 1.2 mg/kg, male dogs, repeat oral X842, Day 1, read-out: AUC(0-24h) Day 1): 436 ± 272 ng·h/mL; AUC(0-t) ([1]; male, po, 1.2 mg/kg, male dogs, repeat oral X842, Day 7, read-out: AUC(0-24h) Day 7): 439 ± 81.6 ng·h/mL; AUC(0-t) ([1]; male, po, 1.2 mg/kg, male dogs, single oral X842 1.2 mg/kg, read-out: AUC(0-24h)): 436 ng·h/mL; AUC(0-t) ([1]; male, po, 4.8 mg/kg, male dogs, single oral X842 4.8 mg/kg, read-out: AUC(0-24h)): 4850 ng·h/mL; Cmax [2, 13]: 80.5 ± 17.7 ng/mL; AUC(0-t) [2, 13]: 133 ± 11.1 ng·h/mL; half-life [2, 13]: 2 ± 0.4 h; Cmax [2, 14]: 13.5 ± 5.8 ng/mL; AUC(0-t) [2, 14]: 67.6 ± 23.7 ng·h/mL; half-life [2, 14]: 3.7 ± 1.6 h; Cmax [2, 15]: 72.5 ± 5.6 ng/mL; AUC(0-t) [2, 15]: 382 ± 44.9 ng·h/mL; half-life [2, 15]: 2.7 ± 0.4 h; Cmax [2, 16]: 336 ± 69.4 ng/mL; AUC(0-t) [2, 16]: 3020 ng·h/mL; half-life [2, 16]: 2.6 ± 0.1 h; Cmax [2, 17]: 114 ± 17 ng/mL; half-life ([2]; male, iv, 0.6 mg/kg, male rats, intravenous X842, plasma analyte as labelled (prodrug X842 / parent linaprazan)): 1.4 ± 0.1 h; AUC(0-t) [2, 17]: 114 ± 7.1 ng·h/mL; Cmax [2, 18]: 6.2 ± 1.7 ng/mL; AUC(0-t) [2, 18]: 22.1 ± 9.9 ng·h/mL; half-life [2, 18]: 2.2 ± 1 h; Cmax [2, 19]: 32 ± 9.7 ng/mL; AUC(0-t) [2, 19]: 134 ± 43.3 ng·h/mL; half-life [2, 19]: 2.6 ± 0.5 h; Cmax [2, 20]: 128 ± 17.5 ng/mL; AUC(0-t) [2, 20]: 576 ± 46.1 ng·h/mL; half-life [2, 20]: 3.1 ± 0.3 h
